According to US20250179033A1 (priority 2021, published 2025):
Like-named read-outs stand apart in the source and are kept apart here.

Columns and labels:
[1] = Mouse liver microsome stability; assay type: in vitro ADME
Description: Mouse/Human liver microsome stability: A liver microsome solution (197.5 μL, 1.27 mg/ml protein concentration) (Sekisui Xenotech, Kansas City, KS) was aliquoted into 1.1 ml tubes, to which 2.5 μL of positive control and compound stock solutions (100 μM in DMSO) were added. The tubes were vortexed gently, pre-incubated for 5 min at 37° C., then 50 μL of 5 mM NADPH or LM buffer (no NADPH buffer) was added into the tubes. For analysis, an aliquot of 15 μL was removed from each tube at 0, 5, 15, 30 and 60 min (without-NADPH reaction: 0, 30 and 60 min) and quenched with 300 μL of 25 ng/ml propranolol in acetonitrile. Samples were vigorously vortexed for 1 min and then centrifuged at 4,000 rpm for 15 min at 4° C. 100 μL of supernatant from each sample was transferred to 0.65 ml tubes for LCMS analysis. The amount of parent compound was determined on the basis of the peak area ratio (compound area to IS area) for each time point. Clearance rates were calculated by the equation: […]

[2] = tested on: HIV-1 IIIB A17 variant (Y181C/K103N); assay: HIV inhibition assay in TZM-bl cells, A17 variant; assay type: cell-based
Outline: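 TZM-bl cells with 15 μg/mL DEAE-dextran were infected with H9-grown HIV-1 IIIB, wild-type or A17 (Y181C/K103N), in the presence of compound (0.005% or 0.05% DMSO) for 48 h at 37 °C. Luciferase RLU was read after lysis. Toxicity was measured in parallel by CellTiter-Blue fluorescence.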

in vitro = in vitro ADME, human
Description: Protein Binding in Plasma: The donor side of dialysis inserts were filled with 200 μL plasma (human and mouse; source BioDuro, San Diego, California, United States of America) containing 5 μM drug and 0.5% of DMSO and the receiver side of the dialysis inserts was filled with 350 μL of PBS buffer (100 mM, pH 7.4). The prepared dialysis apparatus was placed in a shaker (37° C., 100 rpm) for 5 hours. Two tubes with plasma containing 5 μM experimental compound were also prepared for stability test: one tube was placed in the […] for 5 hours and the other tube was placed in shaker ([…], 100 rpm) for 5 hours. Samples were collected from the donor and receiver sides of each dialysis insert. The same volume of blank plasma was added to buffer samples and blank buffer to plasma samples to make sure all sample mixtures contain 50% plasma and 50% buffer. 50 μL of each sample was mixed with 300 μL of acetonitrile containing 25 ng/ml internal standard (propranolol). All samples were vortexed for 1 minute and then centrifuged at 4000 rpm, 4° C. for 15 min. 100 μL of the supernatant was transferred to 0.65 ml tube for LCMS analysis. The amount of compound was determined on the basis of the peak area ratio (compound area to internal standard area) for the two sides, and protein binding is determined using the following equations: % Bound=100×([Area Ratio of Donor]5h*5−[Area Ratio of Receiver]5h)/([Area Ratio of Donor]5h*5). The percentage remaining at 37° C. after 5 hours was calculated on the basis of the amount measured at 0° C. after 5 hours.

CYP3A4 = CYP3A4 (Homo sapiens, UniProt P08684); assay: Human CYP inhibition in human liver microsomes; assay type: in vitro ADME
Chain of CYP3A4 (P08684 whole entry): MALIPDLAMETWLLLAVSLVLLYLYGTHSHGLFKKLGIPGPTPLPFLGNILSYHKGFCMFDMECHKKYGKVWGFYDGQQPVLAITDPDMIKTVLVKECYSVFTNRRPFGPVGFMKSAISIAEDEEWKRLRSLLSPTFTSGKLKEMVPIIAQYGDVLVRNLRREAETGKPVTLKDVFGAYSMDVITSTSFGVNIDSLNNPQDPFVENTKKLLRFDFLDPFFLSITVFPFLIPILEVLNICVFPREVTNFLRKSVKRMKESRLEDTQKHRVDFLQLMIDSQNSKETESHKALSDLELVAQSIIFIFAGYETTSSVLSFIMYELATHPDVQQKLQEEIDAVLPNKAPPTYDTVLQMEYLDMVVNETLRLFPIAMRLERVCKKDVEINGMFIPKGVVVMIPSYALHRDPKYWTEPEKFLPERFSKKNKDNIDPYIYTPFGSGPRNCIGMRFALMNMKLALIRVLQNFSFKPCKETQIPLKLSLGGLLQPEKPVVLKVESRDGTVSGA
Description: (§1) Study samples (containing either control inhibitor or test compound) were added into the tubes, vortexed gently and pre-incubated for 5 min at 37° C. 20 μL of NADPH solution was aliquoted into all tubes, then vortexed to start the reaction and to assure adequate mixture of the NADPH. After mixing, the tubes were incubated for 20 min at 37° C. in a shaking water bath and then quenched in […] formic acid/acetonitrile solution. After quenching, the samples were vortexed vigorously for 1 min and centrifuged at 4,000 rpm for 15 min (4° C.). 100 μL of supernatant was transferred to 0.65 ml tubes for LCMS analysis by the bioanalytical method described earlier. The CYP450 substrates and control inhibitors for each enzyme was as follows: CYP1A2 (phenacetin, naphthoflavone), CYP2C9 (diclofenac, sulfaphenazole), CYP2C19 (omeprazole, tranylcypromine), CYP2D6 (dextromethorphan, quinidine), CYP3A4 (midazolam, ketoconazole).

CYP2D6 = CYP2D6 (Homo sapiens, UniProt P10635); assay: Human CYP inhibition in human liver microsomes; assay type: in vitro ADME
Chain of CYP2D6 (P10635 whole entry): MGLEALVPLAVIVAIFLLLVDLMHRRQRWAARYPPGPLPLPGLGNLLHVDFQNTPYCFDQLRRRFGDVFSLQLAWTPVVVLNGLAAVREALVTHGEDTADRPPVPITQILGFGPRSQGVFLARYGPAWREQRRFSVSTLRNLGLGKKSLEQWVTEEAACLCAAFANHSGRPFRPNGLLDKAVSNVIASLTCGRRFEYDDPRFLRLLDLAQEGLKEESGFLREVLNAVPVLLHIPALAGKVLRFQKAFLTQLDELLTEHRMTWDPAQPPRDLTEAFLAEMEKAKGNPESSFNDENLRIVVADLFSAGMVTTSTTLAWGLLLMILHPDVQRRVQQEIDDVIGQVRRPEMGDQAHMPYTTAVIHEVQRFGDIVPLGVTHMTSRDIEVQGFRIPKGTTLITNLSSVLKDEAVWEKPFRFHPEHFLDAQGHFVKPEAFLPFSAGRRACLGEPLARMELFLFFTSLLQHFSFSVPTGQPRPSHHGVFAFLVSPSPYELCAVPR
Description: as §1

[3] = Human immunodeficiency virus 1, IIIB, TZM-bl, read-out: IC50 (TZM, A17), Table 3, TZM-bl, ± SEM, minimum 6 replicates
[4] = Human immunodeficiency virus 1, IIIB, TZM-bl, read-out: IC50 (TZM, A17), Table 4, TZM-bl

| Compound | Mouse liver microsomes, stability in words [1] | half-life at 1 μM ([1]; mouse, liver microsomes) | microsomal CLint at 1 μM ([1]; mouse, liver microsomes) | activity against the A17 variant, in words [2] | IC50 [2, 3] | IC50 [2, 4] | EC50 ([2]; Human immunodeficiency virus 1, IIIB, TZM-bl, read-out: activity against the A17 double mutant (Y181C/K103N), EC50) | half-life at 5 μM (in vitro; human, plasma) | fraction unbound (in vitro; human, plasma, pH 7.4, 5 μM, dialysis 5 hours, read-out: Human plasma protein binding) | IC50 (CYP3A4; human liver microsomes, substrate midazolam, read-out: CYP inhibition IC50, 3A4) | IC50 (CYP2D6; human liver microsomes, substrate dextromethorphan, read-out: CYP inhibition IC50, 2D6) | Mouse liver microsomes CLint ([1]; mouse, liver microsomes, 1 μM) | Human plasma protein binding (in vitro; 5 μM, dialysis 5 hours) | IC50 (CYP3A4) | IC50 (CYP2D6) |
| --- | --- | --- | --- | --- | --- | --- | --- | --- | --- | --- | --- | --- | --- | --- | --- |
| N#C/C=C/c1ccc2c(S(=O)(=O)n3nc(Nc4ccc(C#N)c(Cl)c4)nc3N)cccc2c1 [Compound 20, 4-[[5-amino-1-[[6-[2-cyanovinyl]-1-naphthyl]sulfonyl]-1,2,4-triazol-3-yl]amino]-2-chloro-benzonitrile] | stable | 2.07 h | 11.1 µL/min/mg | retained potent activity | 0.689 ± 0.143 nM | 45.4 nM | 1.86 nM | > 6.21 h | < 0.001 | 31300 nM | > 50000 nM | – | – | – | – |
| Nc1nc(Nc2ccc(Cl)cc2)nn1S(=O)(=O)c1ccc2ccccc2c1 [Compound 1, N3-(4-chlorophenyl)-1-(2-naphthylsulfonyl)-1,2,4-triazole-3,5-diamine] | protein, stable | – | – | – | > 1000 nM | > 1000 nM | – | – | – | – | – | 10.4 μL/min/mg protein | >99.9% | > 50000 nM | > 50000 nM |
